Assay results as given in ChEMBL document CHEMBL6153052, “Development of molecular Trojan horses targeting New Delhi metallo-β-lactamase-1 for the restoration of meropenem susceptibility in drug-resistant bacteria” (Eur J Med Chem, 2025).
Active and inactive are the calls of the source. No cut-off for these calls is given here.

Columns and labels:
[1] = target: Metallo-beta-lactamase type 2 (Bacteria) (UniProt C7C422); test: Inhibition of NDM-1 (unknown origin) using nitrocefin as substrate assessed as residual activity at 64 ug/ml preincubated for 15 mins followed by substrate addition by absorbance based assay relative to control; conditions: dose 64.0 µg/ml
Sequence of Metallo-beta-lactamase type 2 (Bacteria) (C7C422 whole entry): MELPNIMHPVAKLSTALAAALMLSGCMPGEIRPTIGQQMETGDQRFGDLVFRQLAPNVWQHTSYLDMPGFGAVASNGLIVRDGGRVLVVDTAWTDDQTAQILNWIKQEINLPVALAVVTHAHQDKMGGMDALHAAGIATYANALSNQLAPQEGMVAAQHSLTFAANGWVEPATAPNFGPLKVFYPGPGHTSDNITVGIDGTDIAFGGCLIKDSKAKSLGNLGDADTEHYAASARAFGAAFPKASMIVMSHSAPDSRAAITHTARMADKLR

[2] = target: T1, Metallo-beta-lactamase type 2 (Bacteria, UniProt C7C422); test: Inhibition of NDM-1 (unknown origin)
T1 sequence (C7C422 whole entry): as above

[3] = target: T1, Metallo-beta-lactamase type 2; test: Inhibition of NDM-1 (unknown origin) using nitrocefin as substrate assessed as residual activity preincubated for 15 mins followed by substrate addition by absorbance based assay
Klebsiella pneumoniae = test: Antibacterial activity against Klebsiella pneumoniae K-N-1 assessed as minimum bacteriostatic concentration incubated for 20 hrs; type: functional
Acinetobacter baumannii = test: Antibacterial activity against Acinetobacter baumannii aba assessed as minimum bacteriostatic concentration incubated for 20 hrs; type: functional
Escherichia coli [4] = test: Antibacterial activity against Escherichia coli ZJ487 infected in BALB/c mouse assessed as reduction in bacterial count in liver at 10 mg/kg, sc administered at every 12 hr interval measured after 42 hrs; type: functional, organism-based
Escherichia coli [5] = test: Antibacterial activity against Escherichia coli ZJ487 infected in BALB/c mouse assessed as reduction in bacterial count in spleen at 10 mg/kg, sc administered at every 12 hr interval measured after 42 hrs; type: functional, organism-based

SMILES	Activity [1] [%]	further results
O=C(O)C1=C(C[Se]c2ccccc2C(=O)Nc2ccccc2)CS[C@@H]2[C@H](NCc3cc(C(F)(F)F)cc(C(F)(F)F)c3)C(=O)N12	61.6	
CCOC(=O)[C@]1(CS)C[C@H](C(=O)O)C(C)(C)S1		IC50 [2]: 0.04 µM
COc1cc(CN[C@@H]2C(=O)N3C(C(=O)O)=C(C[Se]c4ccccc4C(=O)Nc4ccccc4)CS[C@H]23)cc(OC)c1	55.8	
O=C(O)C1=C(C[Se]c2ccccc2C(=O)Nc2ccccc2)CS[C@@H]2[C@H](NC(=O)c3cccs3)C(=O)N12	49.5	
Cc1cc(C)cc(CN[C@@H]2C(=O)N3C(C(=O)O)=C(C[Se]c4ccccc4C(=O)Nc4ccccc4)CS[C@H]23)c1	69.3	
O=C(O)C1=C(C[Se]c2ccccc2C(=O)Nc2ccccc2)CS[C@@H]2[C@H](NCC3CC3)C(=O)N12	78.2	
O=C(Cc1ccccc1)N[C@H]1C(=O)N2C(C(=O)O)=C(C[S+]([O-])CCC(=O)Oc3c(F)c(F)c(F)c(F)c3F)C[S+]([O-])[C@@H]12 (stereo not given in full)		IC50 [2]: 0.39 µM
CC(=O)N[C@@H]1C(=O)N2C(C(=O)O)=C(C[Se]c3ccccc3C(=O)Nc3ccccc3)CS[C@H]12	88.2	
O=C(O)C1=C(C[Se]c2ccccc2C(=O)Nc2ccccc2)CS[C@@H]2[C@H](NCc3ccccc3Cl)C(=O)N12	66.2	
O=C(O)C1=C(C[Se]c2ccccc2C(=O)Nc2ccccc2)CS[C@@H]2[C@H](NC(=O)C3CC3)C(=O)N12	47.3	IC50 [3]: 150 µM
N#CCC(=O)N[C@@H]1C(=O)N2C(C(=O)O)=C(C[Se]c3ccccc3C(=O)Nc3ccccc3)CS[C@H]12	61.7	
O=C(O)C1=C(C[Se]c2ccccc2C(=O)Nc2ccccc2)CS[C@@H]2[C@H](NCc3ccc(Cl)cc3)C(=O)N12	54	
O=C(O)C1=C(C[Se]c2ccccc2C(=O)Nc2ccccc2)CS[C@@H]2[C@H](NC(=O)c3ccccc3)C(=O)N12	22.3	IC50 [3]: 62.2 µM
Cc1cc(Cl)cc(CN[C@@H]2C(=O)N3C(C(=O)O)=C(C[Se]c4ccccc4C(=O)Nc4ccccc4)CS[C@H]23)c1	30	IC50 [3]: 72.9 µM
O=c1c2ccccc2[se]n1-c1ccccc1 [EBSELEN]	8.05	IC50 [3]: 16 µM
CC1=C(C(=O)O)N2C(=O)[C@@H](NCc3cc(Cl)cc(Cl)c3)[C@H]2SC1	99.6	
O=C(O)C1=C(C[Se]c2ccccc2C(=O)Nc2ccccc2)CS[C@@H]2[C@H](NS(=O)(=O)c3ccccc3)C(=O)N12	48.4	
C[C@@H](O)[C@H]1C(=O)N2C(C(=O)O)=C(S[C@@H]3CN[C@H](C(=O)N(C)C)C3)[C@H](C)[C@H]12 [MEROPENEM]		MIC (Klebsiella pneumoniae): > 512 µg/mL; MIC (Acinetobacter baumannii): > 512 µg/mL; Activity (Escherichia coli [4]): inactive; Activity (Escherichia coli [5]): inactive
